The source made the active and inactive calls. The rule behind the calls is not given here.

This note sets out measurements from ChEMBL document CHEMBL3751837, “Synthesis of tetravalent LacNAc-glycoclusters as high-affinity cross-linker against Erythrina cristagalli agglutinin” (Bioorg Med Chem, 2016).

Assay [1] concerns Erythrina crista-galli. The experiment in a line: Binding affinity to Erythrina crista-galli agglutinin at 0.625 to 480 uM by quantitative precipitation assay.
In assay [2] the test system is Erythrina crista-galli. In words: Inhibition of Erythrina crista-galli agglutinin-mediated hemagglutination assessed as concentration of LacNAc unit after 40 mins in presence of rabbit erythrocytes. The assay is classed as cell-based.
For assay [3], the system named is Erythrina crista-galli. In words: Inhibition of Erythrina crista-galli agglutinin-mediated hemagglutination after 40 mins in presence of rabbit erythrocytes. It is filed as cell-based.
Assay [4] relates to Erythrina crista-galli. The experiment in a line: Binding affinity to Erythrina crista-galli agglutinin by isothermal titration calorimetry analysis relative to 3-TFAP-beta-LacNAc. For orientation: In ITC the heat of successive injections is recorded.
Assay [5] in a line: Binding affinity to Erythrina crista-galli agglutinin by isothermal titration calorimetry analysis.
Assay [6] concerns Erythrina crista-galli. The experiment in a line: Inhibition of Erythrina crista-galli agglutinin-mediated hemagglutination assessed as concentration of LacNAc unit after 40 mins in presence of rabbit erythrocytes relative to LacNAc. It is filed as cell-based.
In assay [7] the test system is Erythrina crista-galli. In words: Binding affinity to Erythrina crista-galli agglutinin at 0.625 to 480 uM by dynamic light scattering analysis.
The test system of assay [8] is Erythrina crista-galli. In words: Binding affinity to Erythrina crista-galli agglutinin assessed as particle size by measuring DLS volume hydrodynamic diameter centered positions at 20 uM by dynamic light scattering analysis (reference value: 8.2 nanometer).
In assay [9] the test system is Erythrina crista-galli. In words: Binding affinity to Erythrina crista-galli agglutinin assessed as particle size by measuring DLS volume hydrodynamic diameter centered positions at 2.5 uM by dynamic light scattering analysis (reference value: 8.2 nanometer).
For assay [10], the system named is Erythrina crista-galli. In words: Binding affinity to Erythrina crista-galli agglutinin assessed as particle size by measuring DLS volume hydrodynamic diameter centered positions at 5 uM by dynamic light scattering analysis (reference value: 8.2 nanometer).
For assay [11], the system named is Erythrina crista-galli. In words: Binding affinity to Erythrina crista-galli agglutinin assessed as formation of large aggregate at 5 to 10 uM by dynamic light scattering analysis.
Assay [12] has as its system Erythrina crista-galli. In words: Binding affinity to Erythrina crista-galli agglutinin assessed as particle size by measuring DLS volume hydrodynamic diameter centered positions at 240 uM by dynamic light scattering analysis (reference value: 8.2 nanometer).
In assay [13] the test system is Erythrina crista-galli. In words: Binding affinity to Erythrina crista-galli agglutinin assessed as particle size by measuring DLS volume hydrodynamic diameter centered positions at 10 uM by dynamic light scattering analysis (reference value: 8.2 nanometer).

In assay [1], `CC(=O)N[C@H]1[C@H](OCCCNC(=O)C[C@H](NC(=O)CCCCC(=O)N[C@@H](CC(=O)NCCCO[C@@H]2O[C@H](CO)[C@@H](O[C@@H]3O[C@H](CO)[C@@H](O)[C@H](O)[C@H]3O)[C@H](O)[C@H]2NC(C)=O)C(=O)NCCCO[C@@H]2O[C@H](CO)[C@@H](O[C@@H]3O[C@H](CO)[C@@H](O)[C@H](O)[C@H]3O)[C@H](O)[C@H]2NC(C)=O)C(=O)NCCCO[C@@H]2O[C@H](CO)[C@@H](O[C@@H]3O[C@H](CO)[C@@H](O)[C@H](O)[C@H]3O)[C@H](O)[C@H]2NC(C)=O)O[C@H](CO)[C@@H](O[C@@H]2O[C@H](CO)[C@@H](O)[C@H](O)[C@H]2O)[C@@H]1O` registered an Activity of 95%. For the same molecule, the MIC – broadly, the lowest concentration found to suppress growth – in assay [2] came out at 6 µM; in assay [3] it was 1.5 µM. The Ratio in assay [4] is 4.9; in assay [6] it was 4. Binding in [5] was put at a Kd of 7.2 µM.

In assay [1], `CC(=O)N[C@H]1[C@H](OCCCCCNC(=O)CCCCCNC(=O)CCCSSCCCC(=O)NCCCCCC(=O)NCCCCCO[C@@H]2O[C@H](CO)[C@@H](O[C@@H]3O[C@H](CO)[C@@H](O)[C@H](O)[C@H]3O)[C@H](O)[C@H]2NC(C)=O)O[C@H](CO)[C@@H](O[C@@H]2O[C@H](CO)[C@@H](O)[C@H](O)[C@H]2O)[C@@H]1O` came in with an Activity of 41%. Besides, the minimal inhibitory concentration (MIC) in assay [2] was 3 µM; in assay [3], 1.5 µM. Further, the Ratio was 2.3 in assay [4] and 8 in assay [6]. Also, in assay [5], binding was put at a Kd of 15.6 µM.

For `CC(=O)N[C@H]1[C@H](OCCCNC(=O)C[C@H](NC(=O)CCCCCNC(=O)CCCCCCCCCCC(=O)NCCCCCC(=O)N[C@@H](CC(=O)NCCCO[C@@H]2O[C@H](CO)[C@@H](O[C@@H]3O[C@H](CO)[C@@H](O)[C@H](O)[C@H]3O)[C@H](O)[C@H]2NC(C)=O)C(=O)NCCCO[C@@H]2O[C@H](CO)[C@@H](O[C@@H]3O[C@H](CO)[C@@H](O)[C@H](O)[C@H]3O)[C@H](O)[C@H]2NC(C)=O)C(=O)NCCCO[C@@H]2O[C@H](CO)[C@@H](O[C@@H]3O[C@H](CO)[C@@H](O)[C@H](O)[C@H]3O)[C@H](O)[C@H]2NC(C)=O)O[C@H](CO)[C@@H](O[C@@H]2O[C@H](CO)[C@@H](O)[C@H](O)[C@H]2O)[C@@H]1O`, the Activity worked out at 95% in assay [1], 2280 nm in assay [8], 1880 nm in [9] and 1750 nm in assay [10]. For the same molecule, the result in assay [7] was Active. Further, the MIC in assay [2] came out at 0.56 µM; in [3] it was 0.14 µM. Further, the Ratio in assay [4] was 15.3; in assay [6] it was 43. For the same molecule, the dissociation constant Kd (in general, the constant that tells how readily two partners part at equilibrium) in [5] worked out at 2.3 µM.

`CC(=O)N[C@H]1[C@H](OCCCNC(=O)C[C@H](NC(=O)CCCCCCCCC(=O)N[C@@H](CC(=O)NCCCO[C@@H]2O[C@H](CO)[C@@H](O[C@@H]3O[C@H](CO)[C@@H](O)[C@H](O)[C@H]3O)[C@H](O)[C@H]2NC(C)=O)C(=O)NCCCO[C@@H]2O[C@H](CO)[C@@H](O[C@@H]3O[C@H](CO)[C@@H](O)[C@H](O)[C@H]3O)[C@H](O)[C@H]2NC(C)=O)C(=O)NCCCO[C@@H]2O[C@H](CO)[C@@H](O[C@@H]3O[C@H](CO)[C@@H](O)[C@H](O)[C@H]3O)[C@H](O)[C@H]2NC(C)=O)O[C@H](CO)[C@@H](O[C@@H]2O[C@H](CO)[C@@H](O)[C@H](O)[C@H]2O)[C@@H]1O` yielded an Activity in assay [1] of 95%. The minimum inhibitory concentration (MIC) in assay [2] amounted to 3 µM; in assay [3], 0.75 µM. Moreover, the Ratio was found to be 9 in [4] and 8 in assay [6]. The molecule also registered a Kd in [5] of 3.9 µM.

Consider `CC(=O)N[C@H]1[C@H](OCCOCCNC(=O)CN(CCOCCOCCN(CC(=O)NCCOCCO[C@@H]2O[C@H](CO)[C@@H](O[C@@H]3O[C@H](CO)[C@@H](O)[C@H](O)[C@H]3O)[C@H](O)[C@H]2NC(C)=O)CC(=O)NCCOCCO[C@@H]2O[C@H](CO)[C@@H](O[C@@H]3O[C@H](CO)[C@@H](O)[C@H](O)[C@H]3O)[C@H](O)[C@H]2NC(C)=O)CC(=O)NCCOCCO[C@@H]2O[C@H](CO)[C@@H](O[C@@H]3O[C@H](CO)[C@@H](O)[C@H](O)[C@H]3O)[C@H](O)[C@H]2NC(C)=O)O[C@H](CO)[C@@H](O[C@@H]2O[C@H](CO)[C@@H](O)[C@H](O)[C@H]2O)[C@@H]1O`, for which the result in assay [1] was Active. The minimum inhibitory concentration (MIC) in assay [2] worked out at 12 µM; in assay [3], 3 µM. The results for the Ratio in assay [4] and in assay [6] were 4.9 and 2, respectively. In assay [5], the Kd stood at 7.2 µM.

In assay [1], `CC(=O)N[C@H]1[C@H](OCCCCCNC(=O)CCCSSCCCC(=O)NCCCCCO[C@@H]2O[C@H](CO)[C@@H](O[C@@H]3O[C@H](CO)[C@@H](O)[C@H](O)[C@H]3O)[C@H](O)[C@H]2NC(C)=O)O[C@H](CO)[C@@H](O[C@@H]2O[C@H](CO)[C@@H](O)[C@H](O)[C@H]2O)[C@@H]1O` showed an Activity of 20%. Moreover, the MIC in [2] was 3 µM; in assay [3], 1.5 µM. In addition, the values for the Ratio in assay [4] and in assay [6] were 2 and 8, respectively. In [5], this molecule registered a Kd of 17.5 µM.

Take `CC(=O)N[C@H]1C(O)O[C@H](CO)[C@@H](O[C@@H]2O[C@H](CO)[C@@H](O)[C@H](O)[C@H]2O)[C@@H]1O` (some centres not stated): the MIC in [2] and in assay [3] was 24 µM each time.

On to `CC(=O)N[C@H]1[C@H](OCCCNC(=O)C[C@H](NC(=O)CCCCCCCCCCCCCCCCC(=O)N[C@@H](CC(=O)NCCCO[C@@H]2O[C@H](CO)[C@@H](O[C@@H]3O[C@H](CO)[C@@H](O)[C@H](O)[C@H]3O)[C@H](O)[C@H]2NC(C)=O)C(=O)NCCCO[C@@H]2O[C@H](CO)[C@@H](O[C@@H]3O[C@H](CO)[C@@H](O)[C@H](O)[C@H]3O)[C@H](O)[C@H]2NC(C)=O)C(=O)NCCCO[C@@H]2O[C@H](CO)[C@@H](O[C@@H]3O[C@H](CO)[C@@H](O)[C@H](O)[C@H]3O)[C@H](O)[C@H]2NC(C)=O)O[C@H](CO)[C@@H](O[C@@H]2O[C@H](CO)[C@@H](O)[C@H](O)[C@H]2O)[C@@H]1O`, for which the Activity in [1] is 95%; in assay [8], 2030 nm; in assay [12] it was 788 nm; in assay [13], 1510 nm; in assay [10], 1110 nm. Besides, the result in assay [11] and in [7] was Active. The minimal inhibitory concentration (MIC) turned out to be 0.76 µM in [2] and 0.19 µM in assay [3]. Moreover, the Ratio came to 14.1 in assay [4] and 32 in [6]. The molecule further had a Kd in [5] of 2.5 µM.

With `CC(=O)N[C@H]1[C@H](OCCOCCNC(=O)CCCCCNC(=O)CN(CCOCCOCCN(CC(=O)NCCCCCC(=O)NCCOCCO[C@@H]2O[C@H](CO)[C@@H](O[C@@H]3O[C@H](CO)[C@@H](O)[C@H](O)[C@H]3O)[C@H](O)[C@H]2NC(C)=O)CC(=O)NCCCCCC(=O)NCCOCCO[C@@H]2O[C@H](CO)[C@@H](O[C@@H]3O[C@H](CO)[C@@H](O)[C@H](O)[C@H]3O)[C@H](O)[C@H]2NC(C)=O)CC(=O)NCCCCCC(=O)NCCOCCO[C@@H]2O[C@H](CO)[C@@H](O[C@@H]3O[C@H](CO)[C@@H](O)[C@H](O)[C@H]3O)[C@H](O)[C@H]2NC(C)=O)O[C@H](CO)[C@@H](O[C@@H]2O[C@H](CO)[C@@H](O)[C@H](O)[C@H]2O)[C@@H]1O`, the outcome in assay [1] was Active. The MIC came to 6 µM in [2] and 1.5 µM in assay [3]. Moreover, the Ratio in assay [4] came to 5.9; in assay [6] it was 4. The dissociation constant (Kd) in assay [5] came out at 6 µM.

For the molecule `CC(=O)N[C@H]1[C@H](OCCCNC(=O)C(F)(F)F)O[C@H](CO)[C@@H](O[C@@H]2O[C@H](CO)[C@@H](O)[C@H](O)[C@H]2O)[C@@H]1O`, the outcome in [1] was inactive. Besides, in assay [5], binding was put at a Kd of 35.2 µM.
